The results in this text go back to patent US20110104301A1, “METHODS OF REDUCING PAIN AND INFLAMMATION” (Georgetown University, A Congressionally Chartered …, priority 2008, published 2011).

Assay [1] has as its system DRG neurons from TRPA1-null mice. The experiment in a line: Ca2+ imaging in DRG neurons from TRPA1-null mice. The settings on record: desflurane n=125, propofol n=120. In kind it is cell-based, mouse. As for the experimental part:
Ca^2+ Imaging. Neurons were loaded with 1 μM Fluo4-AM (Molecular Probes) for 20 min and washed for a further 10-20 min before recording. The dye was excited at 488±15 nm. Emitted fluorescence was filtered with a 535±25 nm bandpass filter, captured by a SPOT RT digital camera (Diagnostic Instruments) and read into a computer. Analysis was performed offline by using Simple PCI software (Compix Inc.).

The next assay concerns the target T1, Drosophila TRPA1 (Drosophila melanogaster, UniProt Q7Z020).
T1 construct: expressed in transfected cells; host or cells: HEK293
T1 sequence (Q7Z020 1-1197): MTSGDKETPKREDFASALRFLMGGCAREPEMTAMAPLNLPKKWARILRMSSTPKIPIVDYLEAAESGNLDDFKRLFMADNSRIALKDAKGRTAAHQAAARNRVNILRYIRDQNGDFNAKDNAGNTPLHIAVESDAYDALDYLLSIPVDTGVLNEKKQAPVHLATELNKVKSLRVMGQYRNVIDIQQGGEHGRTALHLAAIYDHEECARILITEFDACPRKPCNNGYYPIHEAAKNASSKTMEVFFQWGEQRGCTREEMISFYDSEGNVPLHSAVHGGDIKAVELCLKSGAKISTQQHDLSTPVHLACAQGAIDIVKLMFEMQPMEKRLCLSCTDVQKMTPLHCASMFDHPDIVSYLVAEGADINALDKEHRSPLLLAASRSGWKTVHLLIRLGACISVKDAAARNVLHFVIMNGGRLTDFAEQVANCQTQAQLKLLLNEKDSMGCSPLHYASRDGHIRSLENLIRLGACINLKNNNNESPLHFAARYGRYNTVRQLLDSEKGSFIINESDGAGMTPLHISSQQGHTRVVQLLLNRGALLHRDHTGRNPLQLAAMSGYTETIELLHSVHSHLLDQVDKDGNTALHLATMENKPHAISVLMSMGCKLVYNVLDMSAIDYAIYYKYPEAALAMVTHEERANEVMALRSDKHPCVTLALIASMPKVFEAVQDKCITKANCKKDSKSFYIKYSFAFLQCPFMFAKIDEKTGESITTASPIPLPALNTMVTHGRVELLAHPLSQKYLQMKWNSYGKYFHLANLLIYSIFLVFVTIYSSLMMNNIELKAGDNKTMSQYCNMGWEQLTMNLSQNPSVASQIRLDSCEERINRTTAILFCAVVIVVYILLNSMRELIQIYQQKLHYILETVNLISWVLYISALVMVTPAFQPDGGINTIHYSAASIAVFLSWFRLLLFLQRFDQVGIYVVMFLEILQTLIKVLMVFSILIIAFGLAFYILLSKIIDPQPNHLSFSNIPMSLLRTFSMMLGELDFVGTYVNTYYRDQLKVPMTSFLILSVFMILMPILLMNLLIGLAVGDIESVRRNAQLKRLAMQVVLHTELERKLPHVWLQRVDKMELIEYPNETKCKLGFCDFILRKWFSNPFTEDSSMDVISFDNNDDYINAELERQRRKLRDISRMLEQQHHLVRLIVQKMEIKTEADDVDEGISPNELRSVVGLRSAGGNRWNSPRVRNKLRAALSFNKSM
The experiment in a line: Current-voltage recordings in dTRPA1-expressing HEK293 cells. In kind it is cell-based. The settings on record: desflurane at concentrations up to 3 mM. On the procedure:
(§1) A genetic approach was used to identify critical sites in TRPA1 and TRPV1 required for activation by general anesthetics. Drosophila TRPA1 is insensitive to desflurane (at concentrations up to 3 mM). […] Note that dTRPA1 is insensitive to AITC. Next, several chimeric TRP proteins containing dTRPA1 (unresponsive to desflurane) and mTRPA1 were tested. For the dTRPA1-mN chimera, the mouse 720 amino acid N-terminus was exchanged for the drosophila N-terminus. The N-terminal domain contains essential binding sites for AITC, and therefore studying this chimera tests an important role for the N-terminus in anesthetic-sensing. […] The mTRPA1-dTM5 construct was then studied, which is the mouse protein containing the fifth transmembrane domain of the drosophila protein.

The next assay has as its target T2, dTRPA1-mN chimera (UniProt Q7Z020+Q8BLA8).
T2 construct: mouse TRPA1 N-terminus (720 amino acids); expressed in transfected cells
Put plainly: Current-voltage recordings of chimera dTRPA1-mN. In kind it is cell-based. The settings on record: mouse N-terminus substituted. As for the experimental part: as §1

In a further assay the target is T3, TRPV1 (Mus musculus, UniProt Q704Y3).
T3 construct: endogenous in cells; host or cells: primary nodose ganglion neurons of adult C57Bl6/J mice
Put plainly: Patch-clamp of capsaicin-sensitive sensory neurons (nodose ganglia). In kind it is cell-based. On the procedure:
HEK cell and sensory neuron electrophysiology. HEK 293F cells (Invitrogen) were cultured in DMEM supplemented with 1% non-essential amino acids and 10% fetal calf serum. Cell cultures were maintained at 37° C. with 5% CO2. Cells were transfected with rat TRPV 1 (gift of David Julius), and GFP cDNA using Lipofectamine™ Transfection Reagent (Invitrogen) and used 24-48 h after transfection. Nodose ganglia were obtained from adult mice (C57B16/J and TRPV1-null), cut, digested with collagenase, and cultured in Neurobasal +2% B-27 medium (Invitrogen), 0.1% L-glutamine and 1% penicillin/streptomycin on poly-D lysine-coated glass coverslips at 37° C. in 5% CO2. Neurons were used within 24-36 hr of culture. Whole-cell and single-channel patch clamp recordings were performed using an EPC8 amplifier (HEKA). The current signal was low-pass filtered at 1-3 kHz and sampled at 4 kHz. Currents were further filtered for display purposes. For whole-cell and excised patch recordings the bath solution contained (in mM): 140 NaCl, 4 KCl, 1 MgCl2, 1 EGTA, 10 HEPES, 10 glucose pH 7.3 (290 mOsm). The pipette solution contained (in mM): 140 CsC1, 10 NaCl, 10 HEPES, 5 EGTA, 2 Mg ATP and 0.03 GTP, pH 7.3. The peak amplitudes measured either during the prepulse or the tail current (within 1 ms) were plotted as a function of the test potential and normalized to the maximal current obtained from the following Boltzmann function: […]
On the technique in general: In patch-clamp work, channel activity is measured electrically.

T3 sequence (Q704Y3 whole entry): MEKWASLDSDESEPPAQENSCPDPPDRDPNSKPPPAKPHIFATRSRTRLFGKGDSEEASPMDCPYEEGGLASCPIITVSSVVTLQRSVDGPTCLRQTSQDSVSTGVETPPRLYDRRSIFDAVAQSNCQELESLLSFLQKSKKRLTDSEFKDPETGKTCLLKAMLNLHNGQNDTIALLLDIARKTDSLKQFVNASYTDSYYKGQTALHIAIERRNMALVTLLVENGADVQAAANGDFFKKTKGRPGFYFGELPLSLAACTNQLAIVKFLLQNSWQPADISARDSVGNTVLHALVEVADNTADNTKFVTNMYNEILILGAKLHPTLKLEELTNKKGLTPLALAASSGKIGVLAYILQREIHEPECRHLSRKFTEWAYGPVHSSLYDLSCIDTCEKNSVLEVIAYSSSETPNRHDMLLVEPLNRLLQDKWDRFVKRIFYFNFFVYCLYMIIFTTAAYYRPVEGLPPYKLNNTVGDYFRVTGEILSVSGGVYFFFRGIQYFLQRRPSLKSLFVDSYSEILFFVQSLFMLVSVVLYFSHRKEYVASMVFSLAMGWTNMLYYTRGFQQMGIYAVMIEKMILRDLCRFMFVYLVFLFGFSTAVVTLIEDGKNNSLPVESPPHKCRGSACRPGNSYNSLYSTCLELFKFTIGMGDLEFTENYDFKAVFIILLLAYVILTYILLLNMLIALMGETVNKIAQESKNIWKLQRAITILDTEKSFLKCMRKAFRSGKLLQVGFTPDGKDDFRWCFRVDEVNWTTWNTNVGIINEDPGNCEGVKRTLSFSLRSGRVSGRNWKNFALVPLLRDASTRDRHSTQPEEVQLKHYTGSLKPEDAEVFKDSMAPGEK
T2 sequence (Q8BLA8+Q7Z020 fused, change not shown): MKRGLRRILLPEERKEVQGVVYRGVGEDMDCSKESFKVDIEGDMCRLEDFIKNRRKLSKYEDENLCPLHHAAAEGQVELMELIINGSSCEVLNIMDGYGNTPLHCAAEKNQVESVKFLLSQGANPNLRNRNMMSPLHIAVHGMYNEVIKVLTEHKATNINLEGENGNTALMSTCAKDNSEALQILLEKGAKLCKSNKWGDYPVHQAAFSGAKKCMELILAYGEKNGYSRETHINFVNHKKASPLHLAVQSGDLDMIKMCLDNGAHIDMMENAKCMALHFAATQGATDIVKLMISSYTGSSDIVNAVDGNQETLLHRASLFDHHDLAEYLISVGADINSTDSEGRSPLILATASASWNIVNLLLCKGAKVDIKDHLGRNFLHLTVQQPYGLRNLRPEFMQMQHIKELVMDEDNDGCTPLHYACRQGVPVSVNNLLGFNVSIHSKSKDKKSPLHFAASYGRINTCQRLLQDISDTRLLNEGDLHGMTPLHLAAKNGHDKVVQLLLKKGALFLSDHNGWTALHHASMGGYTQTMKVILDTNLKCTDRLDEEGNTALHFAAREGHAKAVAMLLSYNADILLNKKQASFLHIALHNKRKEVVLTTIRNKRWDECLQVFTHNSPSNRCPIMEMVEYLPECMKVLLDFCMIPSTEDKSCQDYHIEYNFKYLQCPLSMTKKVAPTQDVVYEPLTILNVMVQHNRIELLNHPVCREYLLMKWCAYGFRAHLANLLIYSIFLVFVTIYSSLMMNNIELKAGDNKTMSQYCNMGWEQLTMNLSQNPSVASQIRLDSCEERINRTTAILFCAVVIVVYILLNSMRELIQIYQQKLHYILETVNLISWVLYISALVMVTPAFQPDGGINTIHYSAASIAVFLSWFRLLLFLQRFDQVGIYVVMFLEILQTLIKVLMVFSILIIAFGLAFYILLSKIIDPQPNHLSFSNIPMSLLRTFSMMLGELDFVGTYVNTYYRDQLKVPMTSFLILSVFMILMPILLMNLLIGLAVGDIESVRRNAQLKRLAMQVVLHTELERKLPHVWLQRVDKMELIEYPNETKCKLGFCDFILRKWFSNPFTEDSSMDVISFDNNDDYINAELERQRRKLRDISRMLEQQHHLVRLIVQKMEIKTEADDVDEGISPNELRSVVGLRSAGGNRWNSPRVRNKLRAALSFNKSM

Turning to `FC(F)OC(F)C(F)(F)F` (stereo not drawn) [desflurane], in assay [1], the “Ca2+ responses in neurons from TRPA1-null mice” value was “no responses”. Besides, the “Sensitivity of Drosophila TRPA1” value on Drosophila TRPA1 is reported as “insensitive”. Besides, the “Response of dTRPA1-mN chimera” value at dTRPA1-mN chimera is “no responses”.

As to `FC(F)OC(Cl)C(F)(F)F` (stereo not drawn) [isoflurane], the “Capsaicin-evoked single channel activity” value at TRPV1 (cell-free outside-out patches, capsaicin 30 nM, isoflurane 0.9 mM) is on record as “increased”. For the same compound, the “Single TRPV1 channel activity in neurons after PDBu treatment” value on TRPV1 (isoflurane 0.9 mM) is “activated”. The “Response of sensory neurons under control conditions” value on TRPV1 (isoflurane 0.9 mM, AITC-insensitive neurons) is “negligible responses”. Further, at TRPV1 (isoflurane 0.9 mM, capsaicin 30 nM, n=5), the “Enhancement of capsaicin-evoked whole-cell currents” value was “approximately 3 fold”. Moreover, the “Response of sensory neurons after BK treatment” value on TRPV1 (isoflurane 0.9 mM, n=7, P<0.01) is “marked increase in current”. Also, the “Membrane excitability under current-clamp, co-application with BK” value at TRPV1 (n=3) is “depolarized neurons and initiated sustained spike discharge”.
